In patent US11266710B2, “Angio-3 for treatment of retinal angiogenic diseases” (SINGAPORE HEALTH SERVICES PTE LTD, priority 2017, dated 2022):
Where no end group is shown, it is not given here. [ ]: non-standard residue; d: D form. hArg = N=C(N)NCCCC[C@H](N)C(=O)O

Legend:
[1] = test system: laser-induced CNV in C57/BL6J (B6J) wild type mice; experiment: Laser-induced choroidal neovascularization (CNV) model in mice, area of leakage by FFA; type: in vivo; conditions: for Area of Leakage (mean) Week 1 / Area of Leakage (mean) Week 4: laser-induced CNV mice; for % Reduction (area of leakage): vehicle control = 0%
Description: FIG. 3A is a schematic of the experimental design on the efficacy of Angio-3 in a laser-induced choroidal neovascularization (CNV) model in mice (B6J WT mice). FIG. 3B are FFA images of baseline and at different time points post treatment. IV single injection of 100 μL of Angio-3 (25 mg/Kg Bwt) was given at Day 0 (prevention mode) and 4 days after laser (regression mode) and followed for 10 weeks. FIG. 3C is a graph showing the area of leakage by each eye for various groups. FIG. 3D are graphs of the mean area of leakage of all batches for each group. […] The attenuation retinal vascularization was better than scrambled peptide. n=6 eyes per batch; n=3 batches. Values are expressed as means±s.e.m., **P<0.01, *P<0.05, student's t-test. FIG. 3E is a graph of the result of the Retinal Function Test that measures ERG changes in Angio-3 treated and control.
FIG. 4A is a schematic of the experimental design on the efficacy of Angio-3 by IVT administration. […]
FIG. 11 A are FFA images of baseline and at different time points post treatment. Mice received single IVT injection of Angio-3 (at a dose of 1 μg in 1 μl or 100 ng in 1 μl), and chemically modified Angio-3 peptides Pep-N (at doses of 5 μg in μl; 1 μg in μl; and 100 ng in 1 μl, respectively) and Pep-Q peptides (at doses of 5 μg in μl; 1 μg in μl; and 100 ng in 1 μl, respectively). FIG. 11 B is a graph of the area of leakage by each eye. Single dose attenuates retinal angiogenesis in laser-induced mice CNV model via IVT route till 4 weeks. […] Eylea is the positive control. n=18 eyes per group; Values are expressed as means±s.e.m. n=3 independent experiment, **P<0.01, *P<0.05, student's t-test.
Laser induced choridal neo-vascularization (CNV) in C57/BL6J (B6J) wild type mice (n=90).
In B6J mice, single injection of 100 μl volume at 25 mg/kg Bwt concentration Angio-3 was injected via intravenous (i/v) route and this was tested in both Preventive mode (before laser) and Regression mode (4 days after laser). […]
Angio-3 was also injected via intravitreal (IVT) route, single injection of 1 μl volume at 2 different doses; 1 μg (High dose) and 100 ng (Low dose).
4 laser photocoagulation sites were placed concentrically around the optic disc of both eyes to induce CNVs. A diode laser (810 nm) was used with a relative potency scale of 120 mW for mice and 250 mW for rats, an exposure time of 0.05 s, and a spot size of […]. Laser spots were focused with crystal covers to avoid laser beam dispersion. Bubble formation was confirmed the rupture of Bruch's membrane.
Fundus photography and fundus fluorescein angiography (FFA) was imaged using a MICRON IV fundus camera (Phoenix Laboratories USA). For FFA, animals were intraperitoneally injected with 10% sodium fluorescein at a dose of 0.01 ml per 5-6 gm body weight.
In B6J mice, single intravitreous (IVT) injection of 100 ng, 1 μg, 5 μg PEP-Q, PEP-N (modified Angio-3), Angio-3 and Eylea were executed and this was tested in Prevention mode (before laser) Method of Llser induced CNV model and injection was described as above.

HRMEC cells [2] = experiment: VEGF induced proliferation of HRMEC cells (Alamar-Blue); type: cell-based; conditions: 300 μg/ml; 10 ng/ml or 50 ng/ml VEGF165; 3 days
Description: 2000 HRMEC cells were seeded in 96-well plates in 100 μl of media and placed in a CO2 incubator at 37° C. To evaluate the effect the compounds have on VEGF-induced HRMEC proliferation, cells were treated with 10 ng/ml VEGF165 or 50 ng/ml VEGF165 in the presence of different concentrations of Angio-3 after serum starved in EBM-2 supplemented with 0.5% FBS overnight. 300 μg/ml Avastin was used as a positive control. Alamar-Blue assay was performed after 3 days of treatment.

HRMEC cells [3] = experiment: HRMEC transwell migration assay; type: cell-based; conditions: 300 μg/ml; 50 ng/ml VEGF165; overnight
Description: Transwell migration assays were performed in a 24-well cells culture plate containing 8.0 μm pore size inserts. HRMEC cells were serum starved overnight prior of assay. The lower chamber were filled with EBM-2, EBM-2 supplemented with 50 ng/ml VEGF165 plus different concentrations of inhibitors. 1×10^5 Cells in EBM-2 were seeded in the upper chamber. Cells were allowed to migrate to the other side of membrane for overnight at 37° C. Cells on top of the membrane were wiped off and cells migrated to the other side were fixed and stained with 0.4% crystal violet. Cell numbers were counted under a 10× objective for 5 randomly selected fields.

[4] = 100 ng single IVT, prevention mode
[5] = 1 μg single IVT, prevention mode
[6] = 5 μg single IVT, prevention mode

| Substance | Area of Leakage (mean) Week 1 [1, 4] | Area of Leakage (mean) Week 4 [1, 4] | % Reduction (area of leakage) ([1]; 100 ng single IVT) [%] | Area of Leakage (mean) Week 1 [1, 5] | Area of Leakage (mean) Week 4 [1, 5] | % Reduction (area of leakage) ([1]; 1 μg single IVT) [%] | Area of Leakage (mean) Week 1 [1, 6] | Area of Leakage (mean) Week 4 [1, 6] | % Reduction (area of leakage) ([1]; 5 μg single IVT) [%] | choroidal angiogenesis ([1]; B6J mice, single intravitreal injection at dose 100 ng, 1 g, and 5 μg, prevention mode) | VEGF induced HRMEC proliferation (HRMEC cells [2]) | VEGF induced HRMEC migration (HRMEC cells [3]) |
| --- | --- | --- | --- | --- | --- | --- | --- | --- | --- | --- | --- | --- |
| Thr Pro His Thr His Asn Xaa Thr Pro Glu, wherein Xaa is homoarginine (TPHTHN[hArg]TPE) [PEP-N, chemically modified Angio-3 peptide] | 11287.40 | 2237.13 | 42.00 | 12808.95 | 2402.54 | 43.06 | 8251.43 | 749.71 | 52.73 | significantly attenuates the choroidal angiogenesis |  |  |
| bevacizumab [Avastin] |  |  |  |  |  |  |  |  |  |  | sufficient to inhibit VEGF induce proliferation | completely blocked |
